Each molecule was assayed against T1, Human GO (Homo sapiens, UniProt Q9UJM8) (assay: GO enzymatic assay (coupled fluorescence/HRP assay, glycolate substrate)). Conditions: not given.
T1 construct: purchased Novus Biologicals NBP1-72412
T1 sequence (Q9UJM8 1-370): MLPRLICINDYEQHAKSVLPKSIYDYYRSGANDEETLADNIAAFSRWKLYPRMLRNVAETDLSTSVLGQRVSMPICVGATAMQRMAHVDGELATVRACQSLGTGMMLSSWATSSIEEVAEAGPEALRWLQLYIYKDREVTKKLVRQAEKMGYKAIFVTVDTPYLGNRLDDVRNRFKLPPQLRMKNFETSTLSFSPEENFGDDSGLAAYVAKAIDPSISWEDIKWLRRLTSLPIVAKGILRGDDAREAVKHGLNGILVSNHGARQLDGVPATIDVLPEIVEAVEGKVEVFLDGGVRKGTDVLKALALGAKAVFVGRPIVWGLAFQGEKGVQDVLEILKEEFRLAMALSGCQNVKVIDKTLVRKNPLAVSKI
Type: biochemical
How it was run: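 Human GO incubated with glycolate substrate in 50 mM potassium phosphate, pH 7, with varying inhibitor concentrations. Activity read by coupled HRP fluorescence. IC50 taken from variable-slope sigmoidal dose-response fits of percent inhibition relative to DMSO control.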

Row | IC50 [nM] | SMILES
1 | < 100 | O=C(O)c1[nH]nnc1Oc1ccc(-c2ccc(Cl)c(Cl)c2)cc1 [Compound 165, 4-((3′,4′-dichloro-[1,1′-biphenyl]-4-yl)oxy)-1H-1,2,3-triazole-5-carboxylic acid 2,2,2-trifluoroacetate]

Same assay, conditions: Table 1; read-out: Range (range of IC50 values calculated from the enzymatic assays)

Row | SMILES | IC50 [nM]
2 | O=C(O)c1[nH]nnc1Nc1cc(Cl)ccc1Cl [Compound 154, 4-((2,5-dichlorophenyl)amino)-1H-1,2,3-triazole-5-carboxylic acid 2,2,2-trifluoroacetate] | 1000 to 10000
3 | O=C(O)c1[nH]nnc1Oc1ccc(-c2cccc(CN3CCCCC3)c2)cc1 [Compound 160, 4-((3′-(piperidin-1-ylmethyl)-[1,1′-biphenyl]-4-yl)oxy)-1H-1,2,3-triazole-5-carboxylic acid 2,2,2-trifluoroacetate] | 100 to 1000
4 | O=C(O)c1[nH]nnc1Oc1ccc(-c2ccc(Cl)c(OC(F)(F)F)c2)cc1 [Compound 163, 4-((4′-chloro-3′-(trifluoromethoxy)-[1,1′-biphenyl]-4-yl)oxy)-1H-1,2,3-triazole-5-carboxylic acid] | < 100
5 | O=C(O)c1[nH]nnc1Sc1ccc(-c2cccc(N3CCCCC3)c2)cc1 [Compound 164, 4-((3′-(piperidin-1-yl)-[1,1′-biphenyl]-4-yl)thio)-1H-1,2,3-triazole-5-carboxylic acid 2,2,2-trifluoroacetate] | < 100
6 | O=C(O)c1[nH]nnc1C(F)(F)c1ccc(Cl)c(Cl)c1 [Compound 166, 4-((3,4-dichlorophenyl)difluoromethyl)-1H-1,2,3-triazole-5-carboxylic acid] | < 100
7 | O=C(O)c1[nH]nnc1OC1CCC(F)(F)CC1 [Compound 167, 4-((4,4-difluorocyclohexyl)oxy)-1H-1,2,3-triazole-5-carboxylic acid 2,2,2-trifluoroacetate] | < 100
8 | O=C(O)c1[nH]nnc1OC1CC2CCC1C2 (stereo not drawn) [Compound 168, 4-(bicyclo[2.2.1]heptan-2-yloxy)-1H-1,2,3-triazole-5-carboxylic acid] | < 100

The remaining lines, values ahead:

Row | IC50 [nM] | SMILES
9 | < 100 | O=C(O)c1[nH]nnc1Nc1ccc(-c2ccc(OC(F)(F)F)c(Cl)c2)cc1 [Compound 155, 4-((3′-chloro-4′-(trifluoromethoxy)-[1,1′-biphenyl]-4-yl)amino)-1H-1,2,3-triazole-5-carboxylic acid]
10 | < 100 | O=C(O)c1[nH]nnc1Oc1ccc(-c2ccc(OC(F)(F)F)c(Cl)c2)cc1 [Compound 156, 4-((3′-chloro-4′-(trifluoromethoxy)-[1,1′-biphenyl]-4-yl)oxy)-1H-1,2,3-triazole-5-carboxylic acid]
11 | < 100 | O=C(O)c1[nH]nnc1Oc1ccc(-c2cccc(C(=O)N3CCCCC3)c2)cc1 [Compound 157, 4-((3′-(piperidine-1-carbonyl)-[1,1′-biphenyl]-4-yl)oxy)-1H-1,2,3-triazole-5-carboxylic acid 2,2,2-trifluoroacetate]
12 | < 100 | O=C(O)c1[nH]nnc1COc1ccc2cc(Cl)ccc2c1 [Compound 158, 4-(((6-chloronaphthalen-2-yl)oxy)methyl)-1H-1,2,3-triazole-5-carboxylic acid 2,2,2-trifluoroacetate]
13 | < 100 | O=C(O)c1[nH]nnc1Oc1ccc(-c2ccc(C(F)(F)F)cc2)cc1 [Compound 161, 4-((4′-(trifluoromethyl)-[1,1′-biphenyl]-4-yl)oxy)-1H-1,2,3-triazole-5-carboxylic acid]
14 | < 100 | O=C(O)c1[nH]nnc1Oc1ccc(-c2cccc(OC3CCCC3)c2)cc1 [Compound 162, 4-((3′-(cyclopentyloxy)-[1,1′-biphenyl]-4-yl)oxy)-1H-1,2,3-triazole-5-carboxylic acid]

Same assay, conditions: Table 2; read-out: Range (range of IC50 values calculated from the enzymatic assays)

Row | IC50 [nM] | SMILES
15 | < 100 | O=C(O)c1[nH]nnc1Sc1ccc(-c2ccc(N3CCCCC3)cc2)cc1 [Compound 169, 4-((4′-(piperidin-1-yl)-[1,1′-biphenyl]-4-yl)thio)-1H-1,2,3 triazole-5-carboxylic acid 2,2,2-trifluoroacetate]

Reference: patent publication US11384055B2 (BIOMARIN PHARMACEUTICAL INC., priority 2017, dated 2022)
